We go through two molecules from patent publication US8314082B2, “Stilbene derivatives for ADP-ribosyl cyclase inhibitors” (Industrial Cooperation Foundation Chonbuk National …, priority 2006, dated 2012).

Assay [1] has as its system 2 kidney 1 clip hypertensive rat model. Kind of assay: Systolic blood pressure in 2 kidney 1 clip hypertensive rat model. Particulars: intraperitoneal 428 μg/200 g/d, from day 7 after surgery for 7 weeks, tail plethysmography. Format: in vivo, Sprague-Dawley male rats. The method, then:
Renovascular hypertension was produced by 2KlC Sprague-Dawley male rats (7-9 weeks old) weighing 200 to 220-g were anesthetized with ketamine (100 mg/kg, intra-peritoneally) and rumpen (5 mg/kg, intraperitoneally). The left kidney was exposed through the median abdominal incision, and the renal artery was separated from the renal vein with caution. Then, a silver clip with 0.15 mm slit was placed around the renal artery. The sham procedure was performed, including the entire surgery with the exception of arterial clipping. To examine the effect of 2,2′-DHAB in the 2KlC model, we administered it at days 7 after the surgery for 7 weeks. 2,2′-DHAB was injected intraperitoneally with 58% DMSO plus saline at a dose of 1.5 μl/g body weight (428 μg/200 g/d). Sham group and control 2KlC received DMSO plus saline treatment. The dose of injected DMSO had no side effect on blood pressure (BP) or any other parameters. Systolic blood pressure was measured by a method using tail plethysmography in conscious rats once a week, from the day prior to surgery until the day of sacrifice.

In assay [2] the test system is Ang II induced cADPR production in rat cardiomyocytes. In words: Ang II-induced [cADPR]i in cardiomyocytes. The assay is classed as cell-based. Particulars: pretreatment. The method, then:
[cADPR]i was measured using a cyclic enzymatic assay as described previously [Graeff et al., Biochem. J. (2002)361:379-84]. Aplysia californica ADPR-cyclase was purified from […] according to the method described [Lee et al., Cell Regul. (1991)2:203-9]. Briefly, MMCs were treated with 0.3 ml of 0.6 M perchloric acid under sonication after Ang II treatment. Precipitates were removed by centrifugation at 20,000×g for 10 min. […] After centrifugation for 10 min at 1500×g, the aqueous layer was collected and neutralized with 20 mM sodium phosphate (pH 8). To remove all contaminating nucleotides, the samples were incubated with the following hydrolytic enzymes overnight at 37° C.: 0.44 unit/ml nucleotide pyrophosphatase, 12.5 units/ml alkaline phosphatase, 0.0625 unit/ml NADase, and 2.5 mM MgCl2 in 20 mM sodium phosphate buffer (pH 8.0). Enzymes were removed by filtration using Centricon-3 filters. […] An increase in the resorufin fluorescence was measured at 544 nm excitation and 590 nm emission using a fluorescence plate reader (Molecular Devices Corp., Spectra-Max GEMINI). […] Measurement of [cADPR]i in cardiomyocytes were determined as described above examples 5. […]

The subject of the next assay is STZ diabetic mice. In words: Diabetic nephropathy in STZ diabetes mouse model. Format: in vivo. The conditions noted are these: 45 μg/kg i.p. once a day for 6 weeks, mean SE, n = 6. The method, then:
Male mice, weighing 20 25 g, were made diabetic by a single intravenous injection of STZ (65 mg/kg body weight) in 0.05 M citrate buffer (pH 4.8). At the same day, the control mice were injected with the citrate buffer. After 2 days, induction of diabetes was confirmed by tail blood glucose level measurement by using the LifeScan One Touch glucometer (Johnson & Johnson). The diabetic mice (>16 mM blood glucose) were randomly divided into two groups; 6 mice per group treated with vehicle (0.1% DMSO in saline, 100 μl) or DHAB (45 μg/kg body weight in 0.1% DMSO in saline, 100 μl) and resveratrol (45 μg/kg body weight in 0.1% DMSO in saline, 100 μl) administered by intraperitoneal injection once a day for 6 weeks. The control mice were 6 mice per group treated with the vehicle. On day 39, the mice were detained in individual metabolic cages for 24 h for urine collection. On day 42, the mice were anesthetized with diethyl ether, and blood samples were taken from the abdominal aorta. Bilateral kidneys were rapidly removed and weighed. Urine was gravimetrically collected, and urinary albumin concentrations were determined with an enzyme-linked immunosorbent assay using a murine microalbuminuria kit (Albuwell; Exocell, Philadelphia, Pa.). Urine and serum creatinine levels were measured using the QuantiChrom Creatinine Assay Kit (BioAssay Systems, Hayward, Calif.), following the manufacturer's protocol.

For assay [3], the system named is ADPR-cyclase purified partially from rat brain. In words: ADPR-cyclase activity assay, brain enzyme. Format: biochemical. Also on record: dose or concentration left out as unconfirmed. The method, then:
(§1) FIGS. 1A and 1B show the inhibition of rat kidney ADPR-cyclase that was incubated with […] NGD^+ or e-NAD^+ in the presence of various concentrations of 4,4′-dihydrioxyazobenzene (DHAB) at 37° C. for 10 min and effects of DHAB on human CD38, rat brain, heart, spleen, and kidney ADPR-cyclase. FIGS. 1A and 1B are referred to as FIG. 1 herein.
(§2) Specific ADPR-cyclase activity was determined by measuring cyclic GDP-ribose (cGDPR) or etheno-ADP-ribose (e-cADPR) fluorometrically using NGD^+ or e-NAD^+ as a substrate [Greaff et al., Biochem. J. (2002)361:379-84]. Samples were incubated in the presence […] NGD^+ or e-NAD^+ with and without an appropriate agent in an assay buffer (25 mM HEPES, pH 7.4, 100 mM NaCl, and 0.1% Triton X-100) in a […]. The reaction mixture was incubated at 37° C. for 10 min. The reaction was stopped by adding […] trichloroacetic acid (10%). […] Fluorescence of cGDPR or e-ADPR in the solution was determined at excitation/emission wavelengths of 297/410 nm (HITACHI F-2000 fluorescence spectrophotometer). cADPR-hydrolase activity was determined by incubating cADPR with ADPR-cyclase or CD38 at 37° C. for 20 min. Hydrolysis of cADPR was analyzed by high performance liquid chromatography as described (White et al., 2000). […]

Assay [4] deals with ADPR-cyclase purified partially from rat heart. In words: ADPR-cyclase activity assay, heart enzyme. The assay is classed as biochemical. More on the design: dose or concentration left out as unconfirmed. As to the method: as §1, §2

In the case of `Oc1ccccc1/N=N/c1ccccc1O` [2,2′-DHAB, 2,2′-Dihydroxyazobenzene], the “effect on elevation of systolic blood pressure” value in assay [1] is given as “prevented the elevation of blood pressure”. Also, the “effect on Ang II-mediated [cADPR]i” value in assay [2] was “inhibited”.
In turn, `Oc1ccc(N=Nc2ccc(O)cc2)cc1` [4,4′-DHAB, 4,4′-Dihydroxyazobenzene] had a Urine output in the assay with STZ diabetic mice (24 h metabolic cage) of 2.27 ± 1.80 mL/day. In the assay with STZ diabetic mice, the “Body Weight” value was determined as 22.1 ± 0.58 g, the Food intake was 2.27 ± 0.61 g, the Plasma glucose stood at 342 ± 36.1 mg/dL and the “Urinary Albumin” value amounted to 4.01 ± 3.61 µg/day. Besides, the Water intake in the assay with STZ diabetic mice is 2.00 ± 1.73 mL. The “sensitivity of enzyme activity to compound” value in assay [3] is listed as “insensitive”. In assay [4], the “sensitivity of enzyme activity to compound” value is “insensitive”.
